Results published in patent publication US20090192154A1, “SULTAM DERIVATIVES” (Asahi Kasei Pharma Corporation, priority 2007, published 2009).
Read-outs that look alike come from different tables or passages of the source.

Key:
Type in all cases: biochemical
[1] = target: T1, human recombinant ADAMTS-5 (Homo sapiens, UniProt Q9UNA0); test: Inhibitory action for ADAMTS-5 (aggrecanase) activity, FRET assay with aggrecan interglobular domain peptide; conditions: human recombinant ADAMTS-5, 37° C. for 60 minutes
T1 construct: human recombinant ADAMTS-5 in which 6×His tag was added to the C-end side of Asn624; 6xHis (C); made in house
T1 sequence (Q9UNA0 262-624 limits assumed): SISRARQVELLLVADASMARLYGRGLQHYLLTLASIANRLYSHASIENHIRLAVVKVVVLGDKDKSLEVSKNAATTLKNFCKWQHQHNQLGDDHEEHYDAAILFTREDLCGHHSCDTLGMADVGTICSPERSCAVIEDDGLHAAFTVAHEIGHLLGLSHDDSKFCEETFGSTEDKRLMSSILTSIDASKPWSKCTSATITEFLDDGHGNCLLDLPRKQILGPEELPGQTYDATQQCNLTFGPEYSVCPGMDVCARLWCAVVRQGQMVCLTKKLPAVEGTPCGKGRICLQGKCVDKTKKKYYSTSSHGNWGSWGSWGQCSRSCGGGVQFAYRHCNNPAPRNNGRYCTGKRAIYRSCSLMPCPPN
Description: The enzyme protein used for measurement of ADAMTS-5 activity was human recombinant ADAMTS-5. An insect cell line was prepared that stably expressed human recombinant ADAMTS-5 in which 6×His tag was added to the C-end side of Asn624. The culture supernatant of this cell line was collected, and the obtained culture supernatant was purified using Ni-NTA agarose (Qiagen)
A matrix peptide used for measurement of aggrecanase activity was Interglobular domain of human recombinant aggrecan. With reference to the method of Hughes, et al. (J. Biol. Chem. 272: pp. 20269-20274, 1997), the peptide of Thr331 to Gly457 of human aggrecan was contained, and the FLAG epitope peptide was added at the N-terminal, and the C-terminal was modified with biotin. This peptide was expressed using Escherichia coli, and the obtained Escherichia coli was subjected to lysis, and then the peptide was purified with an affinity column (Promega)
Desired concentration of the test compound was reacted in 40 μl of a mixed reaction solution containing 50 mmol/L Tris-HCl (pH 7.5), 100 mmol/L NaCl, 10 mmol/L CaCl2, 0.05% Brij35 and human recombinant ADAMTS-5 and Interglobular domain peptide of human recombinant aggrecan at 37° C. for 60 minutes. To the mixed reaction solution was added 10 μl of 0.2 mol/L EDTA to stop the enzyme reaction. Five μl of this mixed reaction solution was harvested and transferred to a 384 well plate. 0.2% Bovine albumin, cryptate-labeled Streptavidin (CIS bio) and XL 665-labeled anti-FLAG (M2) antibody (CIS bio) suitably diluted with PBS (−)-containing 800 mmol/L potassium fluoride were added thereto so that the amount of each of the added matters was 2.5 μl. The resultant solution was incubated at room temperature. After 60 minutes, the fluorescence value was measured at 340 nm excitation wavelength and 615 nm and 665 nm measurement wavelengths with a fluorescence plate reader. When the matrix peptide was not cleaved, the fluorescence resonance energy transfer from cryptate to XL665 occurs and long life fluorescence of 665 nm wavelength is generated. […] Therefore, the aggrecanase activity was calculated using the change of the ratio of the fluorescence value at 665 nm and the fluorescence value at 615 nm. […] The inhibitory action for aggrecanase activity was represented by IC50 value (μmol/L). Exp. No. in Table 2 represents Example number.

[2] = target: T2, activated human recombinant MMP-3 (Homo sapiens, UniProt P08254); test: Inhibitory action for MMP-3 activity, fluorescence peptide assay; conditions: activated human recombinant MMP-3, 30° C. for 45 minutes
T2 construct: purchased R&D
Description: (§1) Desired concentration of the test compound was reacted in 100 μl of a mixed reaction solution containing 50 mmol/L Tris-HCl (pH7.5), 150 mmol/LNaCl, 10 mmol/LCaCl2, 0.05% Brij35 and activated human recombinant MMP-3 (R&D) and fluorescence peptide matrix Mca-ArgProLysProValGlu-Nval-TrpArgLys (Dnp) —NH2 (R&D) at 30° C. for 45 minutes. To the mixed reaction solution was added 10 μl of 0.2 mol/L EDTA to stop the enzyme reaction. Then, the fluorescence value was measured at 320 nm excitation wavelength and 405 nm measurement wavelength with a fluorescence plate reader.

[3] = target: T3, activated human recombinant MMP-14 catalytic domain (Homo sapiens, UniProt P50281); test: Inhibitory action for MMP-14 activity, fluorescence peptide assay; conditions: 30° C. for 45 minutes
T3 construct: purchased Calbiochem
Description: as §1, with “MMP-14 catalytic domain (Calbiochem)” for “MMP-3 (R&D)”, “matrix” for “matrix Mca-ArgProLysProValGlu-Nval-TrpArgLys (Dnp) —NH2”

[4] = target: T4, activated human recombinant MMP-2 (Homo sapiens, UniProt P08253); test: Inhibitory action for MMP-2 activity, fluorescence peptide assay; conditions: activated human recombinant MMP-2, 30° C. for 45 minutes
T4 construct: purchased R&D
T4 sequence (P08253 110-660): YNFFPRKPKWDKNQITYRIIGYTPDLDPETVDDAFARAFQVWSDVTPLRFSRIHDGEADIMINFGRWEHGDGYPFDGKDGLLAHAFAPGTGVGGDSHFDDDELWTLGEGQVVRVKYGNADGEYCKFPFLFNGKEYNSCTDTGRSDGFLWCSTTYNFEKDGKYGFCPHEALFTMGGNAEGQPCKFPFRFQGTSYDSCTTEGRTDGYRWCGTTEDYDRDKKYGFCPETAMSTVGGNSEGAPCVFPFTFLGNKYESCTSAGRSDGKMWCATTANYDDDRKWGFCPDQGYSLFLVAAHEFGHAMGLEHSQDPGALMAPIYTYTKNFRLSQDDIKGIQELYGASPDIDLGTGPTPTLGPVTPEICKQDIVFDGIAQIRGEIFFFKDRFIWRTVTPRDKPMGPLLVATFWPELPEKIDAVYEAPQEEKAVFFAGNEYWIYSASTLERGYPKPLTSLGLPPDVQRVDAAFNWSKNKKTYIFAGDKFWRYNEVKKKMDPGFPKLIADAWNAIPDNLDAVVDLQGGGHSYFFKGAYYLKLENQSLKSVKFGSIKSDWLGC
Description: as §1, with “mmol/L NaCl,” for “mmol/LNaCl,”, “MMP-2” for “MMP-3”, “Mca-ProLeuGlyLeuDpaAlaArg-NH2” for “Mca-ArgProLysProValGlu-Nval-TrpArgLys (Dnp) —NH2”, “solution,” for “solution was added”, “EDTA was added” for “EDTA”

[5] = read-out: ADAMTS-5 inhibitory activity IC50 value

T2 sequence (P08254 100-477): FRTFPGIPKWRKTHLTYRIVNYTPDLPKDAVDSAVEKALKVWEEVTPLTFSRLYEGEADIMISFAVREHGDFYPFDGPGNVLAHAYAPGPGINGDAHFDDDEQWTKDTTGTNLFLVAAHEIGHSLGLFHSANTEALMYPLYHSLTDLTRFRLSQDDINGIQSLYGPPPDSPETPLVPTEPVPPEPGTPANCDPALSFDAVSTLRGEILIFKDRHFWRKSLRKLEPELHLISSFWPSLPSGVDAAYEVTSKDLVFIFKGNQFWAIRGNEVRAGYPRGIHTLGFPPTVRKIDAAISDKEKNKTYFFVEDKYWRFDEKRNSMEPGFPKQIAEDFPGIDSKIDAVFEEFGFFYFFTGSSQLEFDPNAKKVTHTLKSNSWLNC

Structure (SMILES) | IC50 [1, 5] [nM] | further results
CCC(C(=O)O)N1Cc2sc(/C=C/c3ccc(-c4ccccc4)cc3)cc2S1(=O)=O (single isomer, unassigned) [Example 41] | ≤ 2000 | 
CC(C)C(C(=O)NO)N1Cc2sc(-c3ccccc3)cc2S1(=O)=O (centres unmarked) [Example 5] |  | IC50 ([1]; read-out: ADAMTS-5 IC50): 2100 nM
CC(C(=O)NO)N1Cc2sc(-c3ccccc3)cc2S1(=O)=O (centres unmarked) [Example 11] |  | IC50 ([1]; read-out: ADAMTS-5 IC50): 4000 nM
CCC(C(=O)NO)N1Cc2sc(-c3ccccc3)cc2S1(=O)=O (centres unmarked) [Example 12] |  | IC50 ([1]; read-out: ADAMTS-5 IC50): 2000 nM
O=C(NO)C(C1CCCCC1)N1Cc2sc(-c3ccccc3)cc2S1(=O)=O (centres unmarked) [Example 13] |  | IC50 ([1]; read-out: ADAMTS-5 IC50): 2000 nM
O=C(NO)C(c1ccccc1)N1Cc2sc(-c3ccccc3)cc2S1(=O)=O (centres unmarked) [Example 14] |  | IC50 ([1]; read-out: ADAMTS-5 IC50): 7000 nM
CCC(C(=O)NO)N1Cc2sc(-c3ccccc3)cc2S1(=O)=O (centres unmarked) [Example 18] | ≤ 2000 | 
CCC(C(=O)O)N1Cc2sc(/C=C/c3ccc(-c4ccccc4)cc3)cc2S1(=O)=O (centres unmarked) [Example 22] | ≤ 2000 | 
CCC(C(=O)NO)N1Cc2sc(/C=C/c3ccc(-c4ccccc4)cc3)cc2S1(=O)=O (centres unmarked) [Example 26] | ≤ 2000 | 
CCC(C(=O)O)N1Cc2sc(-c3ccc(/C=C/c4ccccc4)cc3)cc2S1(=O)=O (centres unmarked) [Example 30] | ≤ 2000 | 
CCC(C(=O)O)N1Cc2sc(-c3ccc(-c4ccc5c(ccn5C)c4)cc3)cc2S1(=O)=O (centres unmarked) [Example 53] | ≤ 2000 | 
CCC(C(=O)O)N1Cc2sc(-c3ccc(-c4cc5ccccc5[nH]4)cc3)cc2S1(=O)=O (centres unmarked) [Example 54] | ≤ 2000 | 
CCC(C(=O)O)N1Cc2sc(-c3ccc(-c4cncnc4)cc3)cc2S1(=O)=O (centres unmarked) [Example 56] | ≤ 2000 | 
CCC(C(=O)O)N1Cc2sc(-c3ccc(/C=C/c4ccc(OC)cc4)cc3)cc2S1(=O)=O (centres unmarked) [Example 60] | ≤ 2000 | 
CCC(C(=O)O)N1Cc2sc(-c3ccc(C#Cc4ccccc4)cc3)cc2S1(=O)=O (centres unmarked) [Example 61] | ≤ 2000 | 
CCC(C(=O)O)N1Cc2sc(C#Cc3ccc(N(C)C)cc3)cc2S1(=O)=O (centres unmarked) [Example 66] | ≤ 2000 | 
CCC(C(=O)O)N1Cc2sc(C#Cc3ccc(-c4ccccc4)cc3)cc2S1(=O)=O (centres unmarked) [Example 69] | ≤ 2000 | 
CCC(C(=O)O)N1Cc2sc(-c3ccc(/C=C/c4ccc(Cl)cc4)cc3)cc2S1(=O)=O (centres unmarked) [Example 94] | ≤ 2000 | 
CCC(C(=O)O)N1Cc2sc(-c3ccc(/C=C/c4ccc(C)cc4)cc3)cc2S1(=O)=O (centres unmarked) [Example 95] | ≤ 2000 | 
CCC(C(=O)O)N1Cc2sc(-c3ccc(/C=C/c4ccc(-c5ccccc5)cc4)cc3)cc2S1(=O)=O (centres unmarked) [Example 96] | ≤ 2000 | IC50 [2]: ≥ 30000 nM; IC50 [3]: ≥ 30000 nM; IC50 [4]: ≥ 30000 nM
CCC(C(=O)O)N1Cc2sc(-c3ccc(/C=C/c4ccsc4)cc3)cc2S1(=O)=O (centres unmarked) [Example 97] | ≤ 2000 | 
CCC(C(=O)O)N1Cc2sc(-c3ccc(-c4ccc5c(cnn5C)c4)cc3)cc2S1(=O)=O (centres unmarked) [Example 102] | ≤ 2000 | IC50 [2]: ≥ 30000 nM; IC50 [3]: ≥ 30000 nM
CCC(C(=O)O)N1Cc2cc(-c3ccc(COc4ccc(Oc5ccccc5)cc4)cc3)sc2S1(=O)=O (centres unmarked) [Example 104] | ≤ 2000 | IC50 [2]: ≥ 30000 nM; IC50 [3]: ≥ 30000 nM; IC50 [4]: ≥ 30000 nM
CCC(C(=O)O)N1Cc2sc(-c3ccc(OCc4ccccc4)c(F)c3)cc2S1(=O)=O (centres unmarked) [Example 113] |  | IC50 [2]: ≥ 30000 nM; IC50 [3]: ≥ 30000 nM; IC50 [4]: ≥ 30000 nM
CCC(C(=O)O)N1Cc2sc(-c3ccc(NC(=O)c4ccc(OCc5ccccc5)cc4)cc3)cc2S1(=O)=O (centres unmarked) [Example 147] | ≤ 2000 | IC50 [2]: ≥ 30000 nM; IC50 [3]: ≥ 30000 nM; IC50 [4]: ≥ 30000 nM
